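Values below derive from 48-hour exposures of cells grown in 96-well plates, with endpoints linearly interpolated between the two concentrations bracketing the appropriate inhibition level. TGI is the concentration that stops growth completely.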
How the values were obtained:
Test in all cases: NCI tumour cell line growth inhibition, 48 h
786-0 renal = tested on: 786-0 renal
A549 NSCLC = tested on: A549 NSCLC
ACHN renal = tested on: ACHN renal
BT-549 breast = tested on: BT-549 breast
CAKI-1 renal = tested on: CAKI-1 renal
CCRF-CEM leukemia = tested on: CCRF-CEM leukemia
COLO 205 colon = tested on: COLO 205 colon
DU-145 prostate = tested on: DU-145 prostate
EKVX NSCLC = tested on: EKVX NSCLC
HCT-116 colon = tested on: HCT-116 colon
HCT-15 colon = tested on: HCT-15 colon
HL-60(TB) leukemia = tested on: HL-60(TB) leukemia
HOP-62 NSCLC = tested on: HOP-62 NSCLC
HOP-92 NSCLC = tested on: HOP-92 NSCLC
HS 578T breast = tested on: HS 578T breast
HT29 colon = tested on: HT29 colon
IGROV1 ovarian = tested on: IGROV1 ovarian
K-562 leukemia = tested on: K-562 leukemia
KM12 colon = tested on: KM12 colon
LOX IMVI melanoma = tested on: LOX IMVI melanoma
M14 melanoma = tested on: M14 melanoma
MCF7 breast = tested on: MCF7 breast
MDA-MB-231 breast = tested on: MDA-MB-231 breast
MDA-MB-435 = tested on: MDA-MB-435
MDA-N = tested on: MDA-N
MOLT-4 leukemia = tested on: MOLT-4 leukemia
NCI-H226 lung = tested on: NCI-H226 lung
NCI-H23 lung = tested on: NCI-H23 lung
NCI-H460 lung = tested on: NCI-H460 lung
NCI-H522 lung = tested on: NCI-H522 lung
NCI/ADR-RES ovarian = tested on: NCI/ADR-RES ovarian
OVCAR-3 ovarian = tested on: OVCAR-3 ovarian
OVCAR-4 ovarian = tested on: OVCAR-4 ovarian
OVCAR-5 ovarian = tested on: OVCAR-5 ovarian
OVCAR-8 ovarian = tested on: OVCAR-8 ovarian
PC-3 prostate = tested on: PC-3 prostate
RPMI-8226 leukemia = tested on: RPMI-8226 leukemia
RXF 393 renal = tested on: RXF 393 renal
SF-268 CNS = tested on: SF-268 CNS
SF-295 CNS = tested on: SF-295 CNS
SF-539 CNS = tested on: SF-539 CNS
SK-MEL-2 melanoma = tested on: SK-MEL-2 melanoma
SK-MEL-28 melanoma = tested on: SK-MEL-28 melanoma
SK-MEL-5 melanoma = tested on: SK-MEL-5 melanoma
SK-OV-3 ovarian = tested on: SK-OV-3 ovarian
SN12C renal = tested on: SN12C renal
SNB-19 CNS = tested on: SNB-19 CNS
SNB-75 CNS = tested on: SNB-75 CNS
SR leukemia = tested on: SR leukemia
SW-620 colon = tested on: SW-620 colon
T-47D breast = tested on: T-47D breast
TK-10 renal = tested on: TK-10 renal
U251 CNS = tested on: U251 CNS
UACC-257 melanoma = tested on: UACC-257 melanoma
UACC-62 melanoma = tested on: UACC-62 melanoma
UO-31 renal = tested on: UO-31 renal

SMILES: CC(=O)Oc1c(OC(C)C)c(C)c(O[Si](C(C)C)(C(C)C)C(C)C)c2[nH]c3ccccc3c12
- TGI (786-0 renal): > 100 µM
- TGI (A549 NSCLC): > 100 µM
- TGI (ACHN renal): > 100 µM
- TGI (BT-549 breast): > 100 µM
- TGI (CAKI-1 renal): > 100 µM
- TGI (CCRF-CEM leukemia): > 100 µM
- TGI (COLO 205 colon): > 100 µM
- TGI (DU-145 prostate): > 100 µM
- TGI (EKVX NSCLC): > 100 µM
- TGI (HCT-116 colon): > 100 µM
- TGI (HCT-15 colon): > 100 µM
- TGI (HL-60(TB) leukemia): 8.43 µM
- TGI (HOP-62 NSCLC): > 100 µM
- TGI (HOP-92 NSCLC): > 100 µM
- TGI (HS 578T breast): > 100 µM
- TGI (HT29 colon): > 100 µM
- TGI (IGROV1 ovarian): > 100 µM
- TGI (K-562 leukemia): > 100 µM
- TGI (KM12 colon): > 100 µM
- TGI (LOX IMVI melanoma): > 100 µM
- TGI (M14 melanoma): > 100 µM
- TGI (MCF7 breast): > 100 µM
- TGI (MDA-MB-231 breast): > 100 µM
- TGI (MDA-MB-435): > 100 µM
- TGI (MDA-N): > 100 µM
- TGI (MOLT-4 leukemia): > 24.2 µM
- TGI (NCI-H226 lung): > 100 µM
- TGI (NCI-H23 lung): > 100 µM
- TGI (NCI-H460 lung): > 100 µM
- TGI (NCI-H522 lung): > 100 µM
- TGI (NCI/ADR-RES ovarian): > 100 µM
- TGI (OVCAR-3 ovarian): > 100 µM
- TGI (OVCAR-4 ovarian): > 100 µM
- TGI (OVCAR-5 ovarian): > 100 µM
- TGI (OVCAR-8 ovarian): > 100 µM
- TGI (PC-3 prostate): > 100 µM
- TGI (RPMI-8226 leukemia): > 100 µM
- TGI (RXF 393 renal): > 100 µM
- TGI (SF-268 CNS): > 100 µM
- TGI (SF-295 CNS): > 100 µM
- TGI (SF-539 CNS): > 100 µM
- TGI (SK-MEL-2 melanoma): > 100 µM
- TGI (SK-MEL-28 melanoma): > 100 µM
- TGI (SK-MEL-5 melanoma): > 100 µM
- TGI (SK-OV-3 ovarian): > 100 µM
- TGI (SN12C renal): > 100 µM
- TGI (SNB-19 CNS): > 100 µM
- TGI (SNB-75 CNS): > 100 µM
- TGI (SR leukemia): 99.3 µM
- TGI (SW-620 colon): > 100 µM
- TGI (T-47D breast): > 100 µM
- TGI (TK-10 renal): > 100 µM
- TGI (U251 CNS): > 100 µM
- TGI (UACC-257 melanoma): > 100 µM
- TGI (UACC-62 melanoma): > 100 µM
- TGI (UO-31 renal): > 100 µM
